Measurements: ChEMBL document CHEMBL3091421, “Discovery of benzo[d]imidazo[5,1-b]thiazole as a new class of phosphodiesterase 10A inhibitors” (Bioorg Med Chem Lett, 2013)

Experiments:
[1] = Ratio of drug level in brain to plasma in Sprague-Dawley rat at 10 mg/kg, po after 30 mins; assay type: ADME, organism-based; parameters: dose 10 mg/kg, route oral; conditions: brain and plasma, read-out: BPR
[2] = system: Mus musculus; experiment: Antipsychotic activity in ip dosed CD-1 mouse assessed as reduction in apomorphine-induced sniffing behavior administered 15 mins prior to apomorphine-challenge measured immediately relative to vehicle-treated control; assay type: functional; conditions: CD-1, ip
[3] = system: Rattus norvegicus; experiment: Antipsychotic activity in Sprague-Dawley rat assessed as reduction in quipazine-induced head-twitches at 3 mg/kg, ip administered 15 mins prior to quipazine-challenge measured immediately relative to vehicle-treated control; assay type: functional; parameters: scale not given: the % may be the effect or the level left; conditions: route intraperitoneal
[4] = system: Rattus norvegicus; experiment: Antipsychotic activity in ip dosed Sprague-Dawley rat assessed as reduction in quipazine-induced head-twitches administered 15 mins prior to quipazine-challenge measured immediately relative to vehicle-treated control; assay type: functional
[5] = system: Rattus norvegicus; experiment: Antipsychotic activity in Sprague-Dawley rat conditioned avoidance response model assessed as reduction in avoidance at 6 mg/kg, ip after 15 mins relative to vehicle-treated control; assay type: functional; parameters: scale not given: the % may be the effect or the level left; conditions: route intraperitoneal
[6] = system: Rattus norvegicus; experiment: Antipsychotic activity in Sprague-Dawley rat conditioned avoidance response model assessed as reduction in avoidance at 1 mg/kg, ip after 15 mins relative to vehicle-treated control; assay type: functional; parameters: scale not given: the % may be the effect or the level left; conditions: route intraperitoneal
[7] = system: Rattus norvegicus; experiment: Antipsychotic activity in ip dosed Sprague-Dawley rat psychosis model assessed as inhibition of MK-801-induced locomotion administered 5 mins prior to MK-801-challenge measured after 15 mins up to 1 hr relative to vehicle-treated control; assay type: functional
[8] = system: Rattus norvegicus; experiment: Antipsychotic activity in Sprague-Dawley rat psychosis model assessed as inhibition of MK-801-induced ataxia at 10 mg/kg, ip administered 5 mins prior to MK-801-challenge measured after 15 mins up to 1 hr relative to vehicle-treated control; assay type: functional; conditions: route intraperitoneal
[9] = system: Rattus norvegicus; experiment: Antipsychotic activity in Sprague-Dawley rat psychosis model assessed as inhibition of MK-801-induced ataxia at 1 mg/kg, ip administered 5 mins prior to MK-801-challenge measured after 15 mins up to 1 hr relative to vehicle-treated control; assay type: functional; conditions: route intraperitoneal
[10] = system: Rattus norvegicus; experiment: Antipsychotic activity in Sprague-Dawley rat psychosis model assessed as inhibition of MK-801-induced ataxia at 0.3 mg/kg, ip administered 5 mins prior to MK-801-challenge measured after 15 mins up to 1 hr relative to vehicle-treated control; assay type: functional; conditions: route intraperitoneal
[11] = system: Rattus norvegicus; experiment: Antipsychotic activity in Sprague-Dawley rat psychosis model assessed as inhibition of MK-801-induced stereotypy at 3 mg/kg, ip administered 5 mins prior to MK-801-challenge measured after 15 mins up to 1 hr relative to vehicle-treated control; assay type: functional; conditions: route intraperitoneal
[12] = system: Rattus norvegicus; experiment: Antipsychotic activity in Sprague-Dawley rat psychosis model assessed as inhibition of MK-801-induced stereotypy at 1 mg/kg, ip administered 5 mins prior to MK-801-challenge measured after 15 mins up to 1 hr relative to vehicle-treated control; assay type: functional; conditions: route intraperitoneal
[13] = system: Rattus norvegicus; experiment: Antipsychotic activity in Sprague-Dawley rat psychosis model assessed as inhibition of MK-801-induced stereotypy at 0.3 mg/kg, ip administered 5 mins prior to MK-801-challenge measured after 15 mins up to 1 hr relative to vehicle-treated control; assay type: functional; conditions: route intraperitoneal
[14] = system: Rattus norvegicus; experiment: Antipsychotic activity in Sprague-Dawley rat psychosis model assessed as inhibition of MK-801-induced locomotion at 6 mg/kg, ip administered 5 mins prior to MK-801-challenge measured after 15 mins up to 1 hr relative to vehicle-treated control; assay type: functional; conditions: route intraperitoneal
[15] = system: Rattus norvegicus; experiment: Antipsychotic activity in Sprague-Dawley rat psychosis model assessed as inhibition of MK-801-induced locomotion at 3 mg/kg, ip administered 5 mins prior to MK-801-challenge measured after 15 mins up to 1 hr relative to vehicle-treated control; assay type: functional; conditions: route intraperitoneal
[16] = system: Rattus norvegicus; experiment: Antipsychotic activity in Sprague-Dawley rat psychosis model assessed as inhibition of MK-801-induced locomotion at 1 mg/kg, ip administered 5 mins prior to MK-801-challenge measured after 15 mins up to 1 hr relative to vehicle-treated control; assay type: functional; conditions: route intraperitoneal
[17] = Half life in Sprague-Dawley rat at 10 mg/kg, po by LC-MS/MS analysis; assay type: ADME, organism-based; parameters: dose 10 mg/kg, route oral; conditions: in vivo
[18] = AUC (0 to 24 hrs) in Sprague-Dawley rat at 10 mg/kg, po by LC-MS/MS analysis; assay type: ADME, organism-based; parameters: time < 24 hr, dose 10 mg/kg, route oral; conditions: plasma
[19] = organism: Homo sapiens; experiment: Selectivity ratio of IC50 for PDE9A2 (unknown origin) to IC50 for human recombinant PDE10A
[20] = organism: Homo sapiens; experiment: Selectivity ratio of IC50 for PDE8A (unknown origin) to IC50 for human recombinant PDE10A
[21] = organism: Homo sapiens; experiment: Selectivity ratio of IC50 for PDE4D (unknown origin) to IC50 for human recombinant PDE10A
[22] = organism: Homo sapiens; experiment: Selectivity ratio of IC50 for PDE3A (unknown origin) to IC50 for human recombinant PDE10A
[23] = target: cGMP-specific 3',5'-cyclic phosphodiesterase (Homo sapiens) (UniProt O76074); experiment: Inhibition of PDE5A (unknown origin) using [3H]-cGMP as substrate at 10 uM after 30 mins by radiometric assay
[24] = target: cGMP-inhibited 3',5'-cyclic phosphodiesterase 3A (Homo sapiens) (UniProt Q14432); experiment: Inhibition of PDE3A (unknown origin) using cAMP as substrate at 10 uM after 30 mins by HTRF method
Chain of cGMP-inhibited 3',5'-cyclic phosphodiesterase 3A (Homo sapiens) (Q14432 whole entry): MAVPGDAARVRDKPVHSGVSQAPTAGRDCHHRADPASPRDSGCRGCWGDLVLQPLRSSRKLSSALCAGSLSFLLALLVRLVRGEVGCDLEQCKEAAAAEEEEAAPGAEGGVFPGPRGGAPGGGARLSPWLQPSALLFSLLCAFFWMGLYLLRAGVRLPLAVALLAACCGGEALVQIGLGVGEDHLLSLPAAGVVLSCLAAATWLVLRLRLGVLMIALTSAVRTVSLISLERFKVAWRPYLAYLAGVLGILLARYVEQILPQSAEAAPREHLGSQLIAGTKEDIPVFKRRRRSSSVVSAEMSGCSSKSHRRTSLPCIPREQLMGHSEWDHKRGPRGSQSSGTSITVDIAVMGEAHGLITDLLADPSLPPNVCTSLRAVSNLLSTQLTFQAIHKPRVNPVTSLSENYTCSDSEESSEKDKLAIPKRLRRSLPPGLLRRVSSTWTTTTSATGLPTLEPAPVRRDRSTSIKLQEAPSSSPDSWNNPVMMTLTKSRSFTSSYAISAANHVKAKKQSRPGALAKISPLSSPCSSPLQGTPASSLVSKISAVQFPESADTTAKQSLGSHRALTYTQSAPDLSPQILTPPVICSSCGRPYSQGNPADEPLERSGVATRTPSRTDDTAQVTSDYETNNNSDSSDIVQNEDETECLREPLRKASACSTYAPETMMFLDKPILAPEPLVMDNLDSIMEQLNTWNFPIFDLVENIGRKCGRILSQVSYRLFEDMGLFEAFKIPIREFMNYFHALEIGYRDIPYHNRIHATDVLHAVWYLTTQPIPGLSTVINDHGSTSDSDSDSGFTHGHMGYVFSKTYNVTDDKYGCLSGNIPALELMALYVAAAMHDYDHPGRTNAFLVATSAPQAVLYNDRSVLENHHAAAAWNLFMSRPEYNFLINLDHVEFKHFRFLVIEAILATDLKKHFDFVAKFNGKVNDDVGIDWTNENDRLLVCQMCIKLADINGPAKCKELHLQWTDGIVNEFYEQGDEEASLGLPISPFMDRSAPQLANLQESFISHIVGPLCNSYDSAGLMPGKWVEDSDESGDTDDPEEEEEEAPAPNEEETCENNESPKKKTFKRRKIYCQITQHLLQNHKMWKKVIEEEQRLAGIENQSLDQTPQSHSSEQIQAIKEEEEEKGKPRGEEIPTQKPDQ

[25] = Metabolic stability in human liver microsomes assessed as compound remaining after 60 mins; assay type: ADME; conditions: read-out: Stability
[26] = target: cAMP and cAMP-inhibited cGMP 3',5'-cyclic phosphodiesterase 10A (Homo sapiens, UniProt Q9Y233); experiment: Inhibition of human recombinant PDE10A using [3H]-cAMP/[3H]-cGMP as substrate after 30 mins by radiometric assay
Chain of cAMP and cAMP-inhibited cGMP 3',5'-cyclic phosphodiesterase 10A (Q9Y233 whole entry): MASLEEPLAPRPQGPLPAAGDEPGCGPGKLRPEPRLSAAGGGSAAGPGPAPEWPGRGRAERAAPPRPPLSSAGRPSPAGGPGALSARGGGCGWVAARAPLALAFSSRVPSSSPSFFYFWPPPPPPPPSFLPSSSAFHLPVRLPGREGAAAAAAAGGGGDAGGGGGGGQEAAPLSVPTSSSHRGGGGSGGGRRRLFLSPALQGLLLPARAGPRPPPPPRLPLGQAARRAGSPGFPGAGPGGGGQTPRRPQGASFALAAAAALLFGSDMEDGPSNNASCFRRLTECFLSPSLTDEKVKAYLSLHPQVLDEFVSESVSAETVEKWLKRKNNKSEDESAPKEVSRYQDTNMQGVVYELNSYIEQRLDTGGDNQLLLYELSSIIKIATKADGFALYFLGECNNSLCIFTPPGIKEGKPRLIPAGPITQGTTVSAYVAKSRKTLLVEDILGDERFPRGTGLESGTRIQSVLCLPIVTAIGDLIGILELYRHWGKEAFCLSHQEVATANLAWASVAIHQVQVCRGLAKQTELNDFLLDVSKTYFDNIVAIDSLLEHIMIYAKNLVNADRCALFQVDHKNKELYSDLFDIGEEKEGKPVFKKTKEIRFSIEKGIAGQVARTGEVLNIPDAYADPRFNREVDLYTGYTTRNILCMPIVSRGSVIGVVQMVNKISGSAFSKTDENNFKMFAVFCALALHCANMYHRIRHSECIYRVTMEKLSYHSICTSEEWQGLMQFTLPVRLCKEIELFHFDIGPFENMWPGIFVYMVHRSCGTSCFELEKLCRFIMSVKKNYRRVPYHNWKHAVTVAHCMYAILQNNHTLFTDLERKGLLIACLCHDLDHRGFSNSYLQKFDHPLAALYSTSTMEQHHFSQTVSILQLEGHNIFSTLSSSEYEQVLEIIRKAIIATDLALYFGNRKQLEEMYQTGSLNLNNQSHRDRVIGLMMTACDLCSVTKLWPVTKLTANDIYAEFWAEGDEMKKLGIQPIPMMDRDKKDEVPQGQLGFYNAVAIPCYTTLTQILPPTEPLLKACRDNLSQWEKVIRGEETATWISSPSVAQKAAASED

## Cc1nc(C2CCOCC2)n2c1sc1cc(OCc3ccc4ccccc4n3)ccc12
[1]
  Kp at 0.5 h: 1.82
[2]
  ED50: 16.3 mg/kg
[3]
  Activity: 67%
[4]
  ED50: 1.27 mg/kg
[5]
  Activity: 94%
[6]
  Activity: 26%
[7]
  ED50: 1.44 mg/kg
  inhibition: Dose-dependent effect
[8]
  inhibition in vivo at 10 mg/kg: 82%
[9]
  inhibition in vivo at 1 mg/kg: 10%
[10]
  inhibition in vivo at 0.3 mg/kg: 3%
[11]
  inhibition in vivo at 3 mg/kg: 27%
[12]
  inhibition in vivo at 1 mg/kg: 27%
[13]
  inhibition in vivo at 0.3 mg/kg: 58%
[14]
  inhibition in vivo at 6 mg/kg: 76%
[15]
  inhibition in vivo at 3 mg/kg: 58%
[16]
  inhibition in vivo at 1 mg/kg: 41%
[17]
  half-life: 126 min
[18]
  AUC(0-t) at 24 h: 2830 ng·h/mL
[19]
  Ratio IC50: > 500
[20]
  Ratio IC50: > 500
[21]
  Ratio IC50: > 500
[22]
  Ratio IC50: > 500
[23]
  inhibition: 45.5%
[24]
  inhibition: 11.3%
[25]
  remaining at 1 h: 57%
[26]
  IC50: 7.45 nM
